Reference: patent US12264156B2, “Compounds and pharmaceutical compositions thereof for the treatment of diseases” (GALAPAGOS NV, priority 2018, dated 2025)
Where two headings read alike, the source gives them in different places.

Tests used:
SIK3 = biological target: T1, SIK3 (Homo sapiens, UniProt Q9Y2K2); experiment: ADP-Glo kinase assay, SIK3; assay type: biochemical; settings: ADP-Glo SIK kinase assay
T1 construct: purchased SignalChem S12-11G-100
Outline: (§1)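 Enzyme–substrate mix was started with ATP and incubated 120 min at RT. ADP formed was quantified by ADP-Glo: 40 min ATP depletion, then 30 min detection reagent converting ADP to ATP for luciferase luminescence, which rises with kinase activity. Controls: 1% DMSO and 10 μM staurosporine (final).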

[1] = test system: LPS-induced TNFα in monocyte-derived macrophages (MdM); experiment: MdM assay: LPS-triggered TNFα (ELISA); assay type: cell-based, human
Outline: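 Human monocyte-derived macrophages from CD14+ bead-selected buffy-coat PBMCs, used on day 10, pre-treated with compound for 1 h at 37 °C (0.2% DMSO), then stimulated with 200 ng/mL LPS. Supernatant taken after 20 h for TNFα sandwich ELISA (IL-10 at 2 h).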

SIK2 = biological target: T2, SIK2 (Homo sapiens, UniProt Q9H0K1); experiment: ADP-Glo kinase assay, SIK2; assay type: biochemical; settings: ADP-Glo SIK kinase assay
T2 construct: purchased ThermoFisher Scientific PV4792
Outline: as §1

[2] = monocyte-derived macrophages, LPS 200 ng/mL, supernatant after 20 h, read-out: TNFα EC50
[3] = Homo sapiens, Macrophage, 20 h, monocyte-derived macrophages, LPS 200 ng/mL, supernatant after 20 h, read-out: TNFα EC50

T1 sequence (Q9Y2K2 whole entry): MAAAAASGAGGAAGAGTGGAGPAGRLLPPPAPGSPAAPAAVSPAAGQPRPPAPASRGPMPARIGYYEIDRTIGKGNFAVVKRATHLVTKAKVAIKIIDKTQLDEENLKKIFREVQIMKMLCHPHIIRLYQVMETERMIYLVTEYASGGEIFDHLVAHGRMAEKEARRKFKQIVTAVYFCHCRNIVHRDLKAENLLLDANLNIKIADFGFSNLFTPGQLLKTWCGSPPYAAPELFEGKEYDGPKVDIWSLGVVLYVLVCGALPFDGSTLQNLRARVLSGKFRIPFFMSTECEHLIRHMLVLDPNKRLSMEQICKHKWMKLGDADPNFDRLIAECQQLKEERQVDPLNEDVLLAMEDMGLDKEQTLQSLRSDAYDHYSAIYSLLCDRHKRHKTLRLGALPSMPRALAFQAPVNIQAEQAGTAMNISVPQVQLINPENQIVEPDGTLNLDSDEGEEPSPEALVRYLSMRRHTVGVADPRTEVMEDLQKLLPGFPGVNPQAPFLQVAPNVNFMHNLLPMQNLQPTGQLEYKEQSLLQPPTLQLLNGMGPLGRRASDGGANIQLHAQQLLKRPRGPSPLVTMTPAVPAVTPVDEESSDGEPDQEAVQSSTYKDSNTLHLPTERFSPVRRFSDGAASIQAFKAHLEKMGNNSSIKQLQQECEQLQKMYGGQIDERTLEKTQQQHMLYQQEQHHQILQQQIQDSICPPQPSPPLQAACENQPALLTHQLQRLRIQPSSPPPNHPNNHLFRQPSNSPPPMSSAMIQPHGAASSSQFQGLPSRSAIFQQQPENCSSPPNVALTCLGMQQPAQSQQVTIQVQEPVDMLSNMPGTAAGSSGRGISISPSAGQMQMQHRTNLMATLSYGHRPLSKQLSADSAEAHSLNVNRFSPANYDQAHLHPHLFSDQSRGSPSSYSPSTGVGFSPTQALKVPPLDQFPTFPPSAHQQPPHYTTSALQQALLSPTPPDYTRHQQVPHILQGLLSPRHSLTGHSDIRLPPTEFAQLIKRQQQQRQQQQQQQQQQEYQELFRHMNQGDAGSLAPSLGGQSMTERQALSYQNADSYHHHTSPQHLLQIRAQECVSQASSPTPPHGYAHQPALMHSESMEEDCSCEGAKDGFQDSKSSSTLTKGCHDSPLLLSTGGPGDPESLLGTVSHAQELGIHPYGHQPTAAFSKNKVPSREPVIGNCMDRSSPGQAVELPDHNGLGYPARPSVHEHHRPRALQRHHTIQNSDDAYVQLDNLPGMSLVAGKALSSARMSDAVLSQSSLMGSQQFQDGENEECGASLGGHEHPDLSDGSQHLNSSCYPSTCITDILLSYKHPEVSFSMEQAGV
T2 sequence (Q9H0K1 whole entry): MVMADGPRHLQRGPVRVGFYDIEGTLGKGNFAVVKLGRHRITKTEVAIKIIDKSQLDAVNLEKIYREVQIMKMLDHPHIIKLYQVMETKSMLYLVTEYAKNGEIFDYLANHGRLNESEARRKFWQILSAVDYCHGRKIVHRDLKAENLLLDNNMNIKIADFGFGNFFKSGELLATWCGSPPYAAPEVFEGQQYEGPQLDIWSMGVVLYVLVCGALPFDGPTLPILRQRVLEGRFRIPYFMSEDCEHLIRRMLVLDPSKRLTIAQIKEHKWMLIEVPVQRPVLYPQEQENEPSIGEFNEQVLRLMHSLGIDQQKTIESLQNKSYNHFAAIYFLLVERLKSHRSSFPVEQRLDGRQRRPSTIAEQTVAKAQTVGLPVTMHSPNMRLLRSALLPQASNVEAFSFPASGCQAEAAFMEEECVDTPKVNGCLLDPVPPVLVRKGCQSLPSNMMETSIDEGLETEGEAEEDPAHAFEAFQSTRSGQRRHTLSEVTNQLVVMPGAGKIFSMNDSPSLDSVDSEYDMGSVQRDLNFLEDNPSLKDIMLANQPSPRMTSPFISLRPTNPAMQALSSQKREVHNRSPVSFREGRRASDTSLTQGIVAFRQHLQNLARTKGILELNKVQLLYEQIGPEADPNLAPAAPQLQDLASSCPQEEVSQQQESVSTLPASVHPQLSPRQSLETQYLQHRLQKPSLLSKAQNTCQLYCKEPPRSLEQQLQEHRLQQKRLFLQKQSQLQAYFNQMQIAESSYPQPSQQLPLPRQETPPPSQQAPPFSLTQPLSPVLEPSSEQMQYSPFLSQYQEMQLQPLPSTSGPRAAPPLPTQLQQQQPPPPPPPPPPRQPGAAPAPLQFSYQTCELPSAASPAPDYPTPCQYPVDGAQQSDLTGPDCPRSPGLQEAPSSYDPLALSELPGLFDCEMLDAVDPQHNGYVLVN

SMILES | IC50 (SIK3) [nM] | EC50 [1, 2] [nM] | IC50 (SIK2) [nM] | EC50 [1, 3] [nM] | EC50 ([1]; Homo sapiens, Macrophage, 20 h, read-out: TNFα EC50 (nM)) [nM]
COc1cc(-c2cnc3cc(OCC(O)CN4CCOCC4)ccn23)cc(OC(F)F)c1C(=O)NC1CC1 (single isomer, unassigned) [Cpd 386, N-cyclopropyl-2-(difluoromethoxy)-4-[7-(2-hydroxy-3-morpholino-propoxy)imidazo[1,2-a]pyridin-3-yl]-6-methoxy-benzamide] | 0.01 to 10 | 100 to 1000 | 0.01 to 10 | – | –
COc1cc(-c2cnc3cc(OCCN(C)C)ccn23)cc(OC(F)F)c1C(=O)NC1CC1 [Cpd 6, N-cyclopropyl-2-(difluoromethoxy)-4-[7-[2-(dimethylamino)ethoxy]imidazo[1,2-a]pyridin-3-yl]-6-methoxy-benzamide] | 0.01 to 10 | – | 0.01 to 10 | 100 to 1000 | –
COc1cc(-c2cnc3cc(OC[C@H]4COCCO4)ccn23)cc2c1C(=O)N(CC(F)(F)F)CC2 [Cpd 86, 6-[7-[[(2R)-1,4-dioxan-2-yl]methoxy]imidazo[1,2-a]pyridin-3-yl]-8-methoxy-2-(2,2,2-trifluoroethyl)-3,4-dihydroisoquinolin-1-one] | 0.01 to 10 | – | 10 to 100 | 100 to 1000 | –
COc1cc(-c2cnc3cc(OCCN4CCOCC4)ccn23)cc2c1C(=O)N(CC(F)(F)F)CC2 [Cpd 88, 8-methoxy-6-[7-(2-morpholinoethoxy)imidazo [1,2-a]pyridin-3-yl]-2-(2,2,2-trifluoroethyl)-3,4-dihydroisoquinolin-1-one] | – | – | – | – | 100 to 1000
COc1cc(-c2cnc3cc(OCCC4CCCN4C)ccn23)cc2c1C(=O)N(CC(F)(F)F)CC2 (stereo not shown) [Cpd 122, 8-methoxy-6-[7-[2-(1-methylpyrrolidin-2-yl)ethoxy]imidazo[1,2-a]pyridin-3-yl]-2-(2,2,2-trifluoroethyl)-3,4-dihydroisoquinolin-1-one] | 0.01 to 10 | – | 0.01 to 10 | 100 to 1000 | –
CN(C)CCOc1ccn2c(-c3cc4c(c(OC(F)F)c3)C(=O)N(CC(F)F)CC4)cnc2c1 [Cpd 150, 2-(2,2-difluoroethyl)-8-(difluoromethoxy)-6-[7-[2-(dimethylamino)ethoxy]imidazo[1,2-a]pyridin-3-yl]-3,4-dihydroisoquinolin-1-one] | 0.01 to 10 | – | 0.01 to 10 | 100 to 1000 | –

Further lines, with some results ahead:

IC50 (SIK3) [nM] | EC50 [1, 2] [nM] | IC50 (SIK2) [nM] | EC50 [1, 3] [nM] | SMILES | EC50 ([1]; Homo sapiens, Macrophage, 20 h, read-out: TNFα EC50 (nM)) [nM]
0.01 to 10 | 0.1 to 100 | 0.01 to 10 | – | COc1cc(-c2cnc3cc(OCC(O)CN4CCOCC4)ccn23)cc(OC(F)F)c1C(=O)NC1CC1 (single isomer, unassigned) [Cpd 387, N-cyclopropyl-2-(difluoromethoxy)-4-[7-(2-hydroxy-3-morpholino-propoxy)imidazo[1,2-a]pyridin-3-yl]-6-methoxy-benzamide] | –
0.01 to 10 | – | 0.01 to 10 | 0.1 to 100 | COc1cc(-c2cnc3cc(OCCCN(C)C)ccn23)cc(OC(F)F)c1C(=O)NC1CC1 [Cpd 13] | –
0.01 to 10 | – | 0.01 to 10 | 100 to 1000 | COc1cc(-c2cnc3cc(OCC4CN(C)C4)ccn23)cc(OC(F)F)c1C(=O)NC1CC1 [Cpd 14, N-cyclopropyl-2-(difluoromethoxy)-6-methoxy-4-[7-[(1-methylazetidin-3-yl)methoxy]imidazo[1,2-a]pyridin-3-yl]benzamide] | –
10 to 100 | – | 0.01 to 10 | 100 to 1000 | COc1cc(-c2cnc3cc(OCCN(C)C)ccn23)cc2c1C(=O)N(CC(F)(F)F)CC2 [Cpd 18, 6-[7-[2-(dimethylamino)ethoxy]imidazo[1,2-a]pyridin-3-yl]-8-methoxy-2-(2,2,2-trifluoroethyl)-3,4-dihydroisoquinolin-1-one] | –
0.01 to 10 | – | 0.01 to 10 | 100 to 1000 | CNc1cc(-c2cnc3cc(OCCN(C)C)ccn23)cc(OC(F)F)c1C(=O)NCC(F)(F)F [Cpd 165, 2-(difluoromethoxy)-4-[7-[2-(dimethylamino)ethoxy]imidazo[1,2-a]pyridin-3-yl]-6-(methylamino)-N-(2,2,2-trifluoroethyl)benzamide] | –
